Assay results taken from patent US7176224B2, “Oxazolyl-aryloxyacetic acid derivatives and their use as PPAR agonists” (Eli Lilly and Company, priority 2000, dated 2007).

Columns and labels:
db/db mice = assay: Evaluation of glucose levels in db/db mice; type: in vivo; settings: 30 mg/kg oral gavage daily for 7 days; 100% = glucose not differing from lean values
Experimental: Five week old male diabetic (db/db) mice [C57BlKs/j-m +/+ Lepr(db), Jackson Laboratory, Bar Harbor, Me.] or lean littermates (DB/?) were housed 6 per cage (10″20″8″ with aspen chip bedding) with food (Purina 5015) and water available at all times. After an acclimation period of 2 weeks, animals were individually identified by ear notches, weighed, and bled via the tail vein for determination of initial glucose levels. Blood was collected (100 μl) from unfasted animals by wrapping each mouse in a towel, cutting the tip of the tail with a scalpel, and milking blood from the tail into a heparinized capillary tube (Fisher) balanced on the edge of the bench. Sample was discharged into a heparinized microtainer with gel separator (VWR) and retained on ice. Plasma was obtained after centrifugation at 4° C. and glucose measured immediately. Remaining plasma was frozen until the completion of the experiment, when glucose and triglycerides were assayed in all samples. […]
Glucose was measured colorimetrically using commercially purchased reagents (Sigma #315-500). […] The absorbance of the dye produced is linearly related to the analyte in the sample. […] Standards (Sigma #339-11, Sigma #16-11, and Sigma #CC0534 for glucose, triglycerides and total cholesterol, respectively), quality control plasma (Sigma # A2034), and samples (2 or 5 μl/well) were measured in duplicate using 200 μl of reagent. […]

Hu apoAI transgenic mice = assay: Evaluation of triglyceride and cholesterol levels in hu apoAI transgenic mice; type: in vivo; settings: 30 mg/kg oral gavage daily for 7 days; serum HDLc FPLC area under the curve, over mice receiving vehicle
Experimental: Five to six week old male mice, transgenic for human apoAI [C57B1/6-tgn(apoa1) 1rub, Jackson Laboratory, Bar Harbor, Me.] were housed five per cage (10″×20″8″ with aspen chip bedding) with food (Purina 5001) and water available at all times. After an acclimation period of 2 weeks, animals were individually identified by ear notches, weighed, and assigned to groups based on body weight. Beginning the following morning, mice were dosed daily by oral gavage for 7 days using a 20 gauge, 1½″ curved disposable feeding needle (Popper & Sons). Treatments were test compounds (30 mg/kg), a positive control (fenofibrate, 100 mg/kg) or vehicle [1% carboxymethylcellulose (w/v)/0.25% Tween80 (w/v); 0.2 ml/mouse]. Prior to termination on day 7, mice were weighed and dosed. Three hours after dosing, animals were anesthetized by inhalation of isoflurane (2–4%; Abbott Laboratories, Chicago, Ill.) and blood obtained via cardiac puncture (0.7–1.0 ml). Whole blood was transferred to serum separator tubes (Vacutainer SST), chilled on ice, and permitted to clot. Serum was obtained after centrifugation at 4° C. and frozen until analysis for triglycerides, total cholesterol, compound levels, and serum lipoprotein profile by fast protein liquid chromatography (FPLC) coupled to an inline detection system. After sacrifice by cervical dislocation, the liver, heart and epididymal fat pads were excised and weighed.
The animals dosed with vehicle had average triglycerides values of 60–80 mg/dl, which were reduced by the positive control fenofibrate (33–58 mg/dl with a mean reduction of 37%). The animals dosed with vehicle had average total serum cholesterol values of 140–180 mg/dl, which were increased by fenofibrate (190–280 mg/dl, with a mean elevation of 41%). […] increased the amount of HDLc (68–96 v-sec with a mean percent increase of 48%).
Glucose was measured colorimetrically using commercially purchased reagents (Sigma #315-500). According to the manufacturers, the procedures were modified from published work (McGowan, M. W., Artiss, J. D., Strandbergh, D. R. & Zak, B. Clin Chem, 20:470–5 (1974) and Keston, A. Specific colorimetric enzymatic analytical reagents for glucose. Abstract of papers 129th Meeting ACS, 31C (1956).); and depend on the release of a mole of hydrogen peroxide for each mole of analyte, coupled with a color reaction first described by Trinder (Trinder, P. Determination of glucose in blood using glucose oxidase with an alternative oxygen acceptor. Ann Clin Biochem, 6:24 (1969)). The absorbance of the dye produced is linearly related to the analyte in the sample. The assays were further modified in our laboratory for use in a 96 well format. Standards (Sigma #339-11, Sigma #16-11, and Sigma #CC0534 for glucose, triglycerides and total cholesterol, respectively), quality control plasma (Sigma # A2034), and samples (2 or 5 μl/well) were measured in duplicate using 200 μl of reagent. An additional aliquot of sample, pipetted to a third well and diluted in 200 μl water, provided a blank for each specimen. Plates were incubated at room temperature (18, 15, and 10 minutes for glucose, triglycerides and total cholesterol, respectively) on a plate shaker (DPC Micormix 5) and absorbance read at 500 nm (glucose and total cholesterol) or 540 nm (triglycerides) on a plate reader (Wallac Victor 1420). Sample absorbances were compared to a standard curve (100–800, 10–500, and 100–400 mg/dl for glucose, triglycerides and total cholesterol, respectively). Values for the quality control sample were always within the expected range and the coefficient of variation for samples was below 10%. All samples from an experiment were assayed at the same time to minimize inter-assay variability.
Serum lipoproteins were separated and cholesterol quantitated with an in-line detection system. Sample was applied to a Superose® 6 HR 10/30 size exclusion column (Amersham Pharmacia Biotech) and eluted with phosphate buffered saline-EDTA at 0.5 ml/min. […]

For `Cc1oc(-c2cccc(-c3cccs3)c2)nc1CCOc1ccc(CC(C)(Oc2ccccc2)C(=O)O)cc1` (centres unmarked) [Example 5, 2-Methyl-3-(4-{2-[5-methyl-2-(3-thiophen-2-ylphenyl)oxazol-4-yl]ethoxy}phenyl)-2-phenoxypropionic acid], the “Glucose Normalisation” value (db/db mice) was 71% and the “% HDLc Increase” value (Hu apoAI transgenic mice) was 94.5%.
